The record followed here is patent publication US9708259B2 (Hoffmann-La Roche Inc., priority 2013, dated 2017).

One assay concerns the target T1, ratM1 (Rattus norvegicus, UniProt P08482).
T1 construct: expressed in transfected cells; host or cells: CHO cells (stated generally for the assay, not specifically for rat M1)
T1 sequence (P08482 1-460): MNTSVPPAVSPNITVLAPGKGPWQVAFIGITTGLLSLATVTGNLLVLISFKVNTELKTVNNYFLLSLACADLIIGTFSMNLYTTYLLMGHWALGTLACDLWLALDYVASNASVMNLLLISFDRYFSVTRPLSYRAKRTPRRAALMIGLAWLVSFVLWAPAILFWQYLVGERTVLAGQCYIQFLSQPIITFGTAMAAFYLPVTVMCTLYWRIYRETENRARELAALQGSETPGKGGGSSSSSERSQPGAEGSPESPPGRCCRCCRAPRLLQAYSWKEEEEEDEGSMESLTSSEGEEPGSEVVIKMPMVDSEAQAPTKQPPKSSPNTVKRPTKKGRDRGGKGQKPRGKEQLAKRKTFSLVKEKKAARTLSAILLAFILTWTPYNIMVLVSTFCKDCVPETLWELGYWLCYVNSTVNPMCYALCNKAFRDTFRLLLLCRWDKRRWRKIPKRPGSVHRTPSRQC
The assay is described as follows: M1 PAM assay (FLIPR intracellular calcium), rat M1. Type of assay: cell-based. A general note: Calcium flux is commonly read through the fluorescence of an indicator in the cells.

Another assay concerns the target T2, human M1 (Homo sapiens, UniProt P11229).
T2 construct: expressed in transfected cells; host or cells: CHO cells
T2 sequence (P11229 1-460): T1 sequence (P08482 1-460) with V5A, S254T, S309P, K320R, G337A, V413I
The assay is described as follows: M1 PAM assay (FLIPR intracellular calcium), human M1. Type of assay: cell-based. Put shortly:
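CHO cells expressing M1, Fluo-4AM-loaded, in HEPES/probenecid HBSS pH 7.4, 1% DMSO final. Compounds pre-incubated 2 min for agonist activity versus 30 nM acetylcholine control. For PAM activity, acetylcholine EC20 added after the 2 min pre-incubation, then 2 min more before FLIPR intracellular Ca2+ read.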

[1] abbreviates: rat M1, FLIPR Ca2+, second value of the cell, read-out: ratM1 EC50.
Setting [2] is: CHO human M1 cells, FLIPR Ca2+, with EC20 of acetylcholine, first value of the cell, read-out: hM1 EC50.

The structures appear in SMILES notation. Where a chain is given by its changes, count along the chain named. Where two headings read alike, the source gives them in different places.

Broadly, the EC50 is the concentration giving half of the maximal effect. With `Cn1cc(-c2ccc(Cn3cc(C(=O)NC4CCOCC4)c4c(F)ccc(F)c43)cc2)cn1` [Example 95, 4,7-difluoro-1-(4-(1-methyl-1H-pyrazol-4-yl)benzyl)-N-(tetrahydro-2H-pyran-4-yl)-1H-indole-3-carboxamide], the values for the EC50 at ratM1 (setting [1]) and at human M1 (setting [2]) were 50 nM and 27 nM, respectively.
As to `Cn1cc(-c2ccc(Cn3cc(CC(=O)N[C@H]4CCOC[C@@H]4O)c4c(F)cccc43)c(F)c2)cn1` [Example 92, 2-[4-Fluoro-1-[[2-fluoro-4-(1-methylpyrazol-4-yl)phenyl]methyl]indol-3-yl]-N-[(3R,4S)-3-hydroxyoxan-4-yl]acetamide], the EC50 is 57 nM on ratM1 (setting [1]) and 35 nM at human M1 (setting [2]).
The like results for `Cn1cc(-c2ccc(Cn3cc(C(=O)N[C@H]4CCOC[C@@H]4O)c4c(F)c(F)c(F)c(F)c43)c(F)c2)cn1` (single isomer, unassigned) [Example 64, 4,5,6,7-Tetrafluoro-1-(2-fluoro-4-(1-methyl-1H-pyrazol-4-yl)benzyl)-N-((3R,4S) or (3S,4R))-3-hydroxytetrahydro-2H-pyran-4-yl)-1H-indole-3-carboxamide] were, in that order, 79.9 nM and 54.7 nM.
Consider `N#Cc1ccc(Cn2cc(C(=O)N[C@H]3CCOC[C@@H]3O)c3c(F)cccc32)cc1` (racemic) [Example 16, 1-(4-cyanobenzyl)-4-fluoro-N-((3RS,4SR)-3-hydroxytetrahydro-2H-pyran-4-yl)-1H-indole-3-carboxamide], for which the EC50 was found to be 337 nM at ratM1 and 237 nM at human M1.
Regarding `CNC(=O)c1ccc(Cn2cc(C(=O)NC3CCOC(C)(C)C3)c3c(F)cccc32)cc1` (stereo not shown) [Example 119, N-(2,2-dimethyloxan-4-yl)-4-fluoro-1-[[4-(methylcarbamoyl)phenyl]methyl]indole-3-carboxamide], the figures for the EC50 at ratM1 (setting [1]) and at human M1 (setting [2]) were 12 nM and 6 nM, respectively.
The like results for `O=C(N[C@H]1CCCC[C@@H]1O)c1cn(Cc2ccc(-c3cnco3)cc2)c2cccc(F)c12` [Example 137, 4-fluoro-N-((1S,2S)-2-hydroxycyclohexyl)-1-(4-(oxazol-5-yl)benzyl)-1H-indole-3-carboxamide] were, in that order, 34 nM and 9 nM.
The like results for `Cn1cc(-c2ccc(Cn3nc(C(=O)N[C@H]4CCOC[C@@H]4O)c4c(F)ccc(F)c43)cn2)cn1` [Example 74, 4,7-difluoro-N-((3R,4S)-3-hydroxytetrahydro-2H-pyran-4-yl)-1-((6-(1-methyl-1H-pyrazol-4-yl)yridine-3-yl)methyl)-1H-indazole-3-carboxamide] were, in that order, 48.9 nM and 54.8 nM.
For `Cc1cn(-c2ccc(Cn3cc(C(=O)N[C@H]4CCOC[C@@H]4O)c4c(F)cccc43)cc2)cn1` (single isomer, unassigned) [Example 51, 4-fluoro-N-((3R,4S) or (3S,4R)-3-hydroxytetrahydro-2H-pyran-4-yl)-1-(4-(4-methyl-1H-imidazol-1-yl)benzyl)-1H-indole-3-carboxamide], in that order: 11.2 nM and 12.3 nM.
As for `O=C(N[C@H]1CCCC[C@@H]1O)c1cn(Cc2ccc(-c3ccn[nH]3)cc2)c2cccc(F)c12` [Example 155, 1-(4-(1H-Pyrazol-5-yl)benzyl)-4-fluoro-N-((1S,2S)-2-hydroxycyclohexyl)-1H-indole-3-carboxamide], the EC50 at ratM1 (setting [1]) was found to be 5 nM; at human M1 (setting [2]), 11 nM.
Consider `CCc1ccc(F)c2c(C(=O)NC3CCOCC3)cn(Cc3ccc4c(cnn4C)c3)c12` [Example 128, 7-ethyl-4-fluoro-1-((1-methyl-1H-indazol-5-yl)methyl)-N-(tetrahydro-2H-pyran-4-yl)-1H-indole-3-carboxamide], for which the half-maximal effective concentration (EC50) turned out to be 1240 nM on ratM1 and 289 nM at human M1.
In the case of `Cn1cc(-c2ccc(Cn3cc(C(=O)N[C@H]4CCCC[C@@H]4O)c4c(F)c(F)c(F)c(F)c43)cc2)cn1` [Example 53, 4,5,6,7-tetrafluoro-N-((1S,2S)-2-hydroxycyclohexyl)-1-(4-(1-methyl-1H-pyrazol-4-yl)benzyl)-1H-indole-3-carboxamide], the 50% effective concentration (EC50) was 47.5 nM at ratM1 (setting [1]) and 44.1 nM on human M1 (setting [2]).
